From ChEMBL document CHEMBL1135777, “Three-dimensional quantitative structure-activity relationships of mazindol analogues at the dopamine transporter” (J Med Chem, 2002)
pIC50: −log10 of the molar value.

These compounds were tested against Sodium-dependent dopamine transporter (Rattus norvegicus, UniProt P23977) (assay: Ability to displace [3H]WIN-35428 from dopamine transporter in rat caudate putamen tissue).
Sodium-dependent dopamine transporter, sequence (P23977 whole entry): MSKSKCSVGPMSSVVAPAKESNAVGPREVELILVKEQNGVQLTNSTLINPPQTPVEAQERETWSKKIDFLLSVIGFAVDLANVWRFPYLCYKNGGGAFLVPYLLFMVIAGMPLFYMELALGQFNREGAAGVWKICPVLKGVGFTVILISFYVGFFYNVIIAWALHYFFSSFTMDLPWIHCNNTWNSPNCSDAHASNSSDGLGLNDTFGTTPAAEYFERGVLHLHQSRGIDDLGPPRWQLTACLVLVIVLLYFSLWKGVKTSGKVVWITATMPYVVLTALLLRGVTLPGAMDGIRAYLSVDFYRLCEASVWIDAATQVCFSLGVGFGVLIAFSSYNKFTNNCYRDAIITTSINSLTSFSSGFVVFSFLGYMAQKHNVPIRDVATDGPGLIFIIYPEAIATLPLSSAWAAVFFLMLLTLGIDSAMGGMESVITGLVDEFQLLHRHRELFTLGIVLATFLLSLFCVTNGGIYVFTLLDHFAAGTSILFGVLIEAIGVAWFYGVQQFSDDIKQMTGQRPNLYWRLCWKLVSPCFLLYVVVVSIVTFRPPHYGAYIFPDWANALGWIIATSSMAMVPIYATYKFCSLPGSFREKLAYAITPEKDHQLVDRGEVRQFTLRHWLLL
Assay type: tissue-based
With `OC1(c2ccc(CN3CCCCC3)cc2)c2ccccc2C2=NCCCN21` (configuration not stated) the pIC50 was 5.92.
For `O=C(c1ccc(Cl)cc1)c1ccccc1-c1ncc[nH]1`, the pIC50 was 5.55.
For `COc1ccc(C2(O)c3ccccc3C3=NCCCN32)cc1OC` (configuration not stated), the pIC50 was 7.06.
`OC1(c2ccc(Cl)cc2)c2ccccc2C2=NCCCN21` (configuration not stated) gave a pIC50 of 9.00.
`Oc1ccc(C2(O)c3ccccc3C3=NCCCN32)cc1` (configuration not stated) showed a pIC50 of 8.47.
`OC1(c2cccnc2)c2ccccc2C2=NCCN21` (configuration not stated) was tested, and the pIC50 was 6.19.
`[O-][S+](c1ccc(Cl)cc1)c1ccccc1C1=NCCN1` (configuration not stated) was tested, and the pIC50 was 5.14.
Compound `OC1(c2ccc(C(F)(F)F)cc2)c2ccccc2C2=NCCN21` (configuration not stated) has a pIC50 of 6.54.
`CN(C)Cc1ccc(C2(O)c3ccccc3C3=NCCN32)cc1` (configuration not stated) showed a pIC50 of 5.55.
In the case of `COC(=O)c1ccc(C2(O)c3ccccc3C3=NCCN32)cc1` (configuration not stated), the pIC50 was 5.48.
With `Clc1ccc(Sc2ccccc2C2=NCCN2)cc1` the pIC50 was 6.49.
`OC1(c2ccc3ccccc3c2)c2ccccc2C2=NCCN21` (configuration not stated) gave a pIC50 of 7.64.
With `Cn1ccnc1-c1ccccc1C(=O)c1ccc(Cl)cc1` the pIC50 was 5.37.
`OC1(c2ccccn2)c2ccccc2C2=NCCN21` (configuration not stated) showed a pIC50 of 5.43.
`COc1ccc(C2(O)c3ccccc3C3=NCCCN32)cc1` (configuration not stated) showed a pIC50 of 8.60.
In the case of `OC1(c2cccc(C(F)(F)F)c2)c2ccccc2C2=NCCN21` (configuration not stated), the pIC50 was 6.64.
With `O=S(=O)(c1ccc(Cl)cc1)c1ccccc1C1=NCCN1` the pIC50 was 5.19.
`OC1(c2ccc(Cl)cc2)c2ccc3ccccc3c2C2=NCCN21` (configuration not stated) gave a pIC50 of 7.80.
`CC1(C)COC(c2ccc(C(=O)c3ccc(Cl)cc3)cc2)=N1` was tested, and the pIC50 was 5.72.
With `OC1(C/C=C/c2ccccc2)c2ccccc2C2=NCCN21` (configuration not stated) the pIC50 was 5.03.
`OC1(C23C[C@H]4C[C@@H](C2)C[C@@H](C3)C4)c2ccccc2C2=NCCN21` (some centres not stated) showed a pIC50 of 5.31.
Compound `OC1(c2ccc(Cl)cc2)c2cccc3cccc(c23)C2=NCCCN21` (configuration not stated) has a pIC50 of 7.38.
`O=C(c1ccc(Cl)cc1)c1cccc(C2=NCCN2)c1` was tested, and the pIC50 was 5.66.
Compound `Clc1ccc(Oc2ccccc2C2=NCCN2)cc1` has a pIC50 of 6.72.
With `OC1(c2ccc(Cl)cc2)c2ccccc2C2=N[C@@H]3CCCC[C@H]3N21` (some centres not stated) the pIC50 was 7.47.
In the case of `OC1(c2ccc(Cl)cc2)c2ccc3ccccc3c2C2=NCCCN21` (configuration not stated), the pIC50 was 7.43.
`OC1CN=C2c3ccccc3C(O)(c3ccc(Cl)cc3)N2C1` (configuration not stated) showed a pIC50 of 8.00.
For `CC1(C2(O)c3ccccc3C3=NCCN32)CCCCC1` (configuration not stated), the pIC50 was 5.46.
With `Clc1ccc(Cc2ccccc2C2=NCCN2)cc1` the pIC50 was 5.40.
Work on `CC1(C)COC(c2ccccc2C(=O)c2ccc(Cl)cc2)=N1` yielded a pIC50 of 6.25.
In the case of `COc1ccc(C2(O)c3ccccc3C3=NCCN32)cc1OC` (configuration not stated), the pIC50 was 5.16.
`OC1(c2ccncc2)c2ccccc2C2=NCCN21` (configuration not stated) gave a pIC50 of 7.20.
In the case of `CC(C)(C)C1(O)c2ccccc2C2=NCCN21` (configuration not stated), the pIC50 was 5.02.
With `OC(c1ccc(Cl)cc1)c1ccc(C2=NCCN2)cc1` (configuration not stated) the pIC50 was 5.80.
Work on `C=CCOc1ccc(C2(O)c3ccccc3C3=NCCCN32)cc1` (configuration not stated) yielded a pIC50 of 7.14.
`Cc1ccc(C2(O)c3ccccc3C3=NCCN32)cc1` (configuration not stated) was tested, and the pIC50 was 7.03.
`OC1(c2ccc3ccccc3c2)c2ccc3ccccc3c2C2=NCCN21` (configuration not stated) was tested, and the pIC50 was 7.42.
With `OC1(c2ccc(COc3ccccc3)cc2)c2ccccc2C2=NCCN21` (configuration not stated) the pIC50 was 6.14.
`CC1(C)COC(c2cccc(C(O)c3ccc(Cl)cc3)c2)=N1` (configuration not stated) showed a pIC50 of 4.80.
`OC1(c2ccc(OCc3ccccc3)cc2)c2ccccc2C2=NCCCN21` (configuration not stated) gave a pIC50 of 7.00.
`OC(c1ccc(Cl)cc1)c1ccccc1C1=NCCN1` (stereo in doubt; 53) was tested, and the pIC50 was 6.72.
For `OC(c1ccc(Cl)cc1)c1ccccc1C1=NCCN1` (stereo in doubt; 54), the pIC50 was 5.57.
